≈ marks a conversion by molar mass, not a printed value. Where two headings read alike, the source gives them in different places.
Tests used:
[1] = tested on: Respiratory syncytial virus; test: Respiratory syncytial virus antiviral activity; type: cell-based; conditions: human respiratory syncytial virus, read-out: IC50: concentration at which the virus production is inhibited by 50%
Protocol: (§1) The compounds were tested for antiviral activity by the Rega Institute (Leuven, Belgium).
(§2) The standard experiments for determining the biological activity of the compounds according to the invention were performed with CMV (Cytomegalovirus), varicella zoster virus, and RSV (respiratory syncytial virus).

HeLa-cells = test: Minimal toxic concentration, cell morphology of HeLa-cells; type: cell-based
[2] = tested on: Cytomegalovirus Davis strain; test: Cytomegalovirus antiviral activity, Davis strain; type: cell-based; conditions: Human betaherpesvirus 5, read-out: IC50: concentration at which the virus production is inhibited by 50%
Protocol: as §2, with “The compounds were tested for antiviral activity by the Rega Institute (Leuven, Belgium). The” for “The”, “virus). [table]” for “virus).”

[3] = Cytotoxicity, reduction of cell growth (Table 1, CMV); type: cell-based; conditions: Table 1, cytomegalovirus
[4] = tested on: Cytomegalovirus AD-169 strain; test: Cytomegalovirus antiviral activity, AD-169 strain; type: cell-based; conditions: Human betaherpesvirus 5, AD169, read-out: IC50: concentration at which the virus production is inhibited by 50%
Protocol: as §2, with “The compounds were tested for antiviral activity by the Rega Institute (Leuven, Belgium). The” for “The”, “virus). [table]” for “virus).”

[5] = Cytotoxicity, reduction of cell growth (Table 2, VZV); type: cell-based; conditions: Table 2, varicella zoster virus
TK − VZV YS/R strain = test: microbe, parasite or virus in culture; type: cell-based, Varicella zoster virus; conditions: Human alphaherpesvirus 3, read-out: IC50: concentration at which the virus production is inhibited by 50%
Protocol: as §1, §2

TK − VZV 07/1 strain = test: microbe, parasite or virus in culture; type: cell-based, Varicella zoster virus; conditions: Human alphaherpesvirus 3, read-out: IC50: concentration at which the virus production is inhibited by 50%
Protocol: as §1, §2

[6] = microscopically detectable change in normal cell morphology of HeLa-cells

Row | Compound | IC50 [1] | MTC: Minimal toxic concentration (HeLa-cells; [6]) | IC50 [2] | CC50 [3] | IC50 [4] | CC50 [5] | IC50 (TK − VZV YS/R strain) | IC50 (TK − VZV 07/1 strain) | MTC: Minimal toxic concentration (HeLa-cells) | melting point
1 | COC(=O)C1=C(C)NC(C)=C(C(=O)OCCCOc2cc(=O)oc3ccccc23)C1c1ccccc1 (centres unmarked) [Example 4, 3-[{3-(Coumarin-4-yloxy)-1-propoxy}carbonyl]-2,6-dimethyl-5-methoxycarbonyl-4-phenyl-1,4-dihydropyridine] | 0.16 µg/mL (≈ 0.327 µM) | 2.8 mg/mL | – | – | – | – | – | – | – | –
2 | CCOC(=O)C1=C(C)NC(COc2cc(=O)oc3ccccc23)=C(C(=O)OCC)C1c1ccccc1C(F)(F)F (centres unmarked) [Example 24, 2-(Coumarin-4-yloxymethyl)-3,5-diethoxycarbonyl-6-methyl-4-(2-trifluoromethylphenyl)-1,4-dihydropyridine] | 0.8 µg/mL (≈ 1.43 µM) | 4.0 mg/mL | 2.3 µg/mL (≈ 4.13 µM) | > 200 µg/mL | 2.4 µg/mL (≈ 4.3 µM) | > 200 µg/mL | 1.5 µg/mL (≈ 2.69 µM) | 2.5 µg/mL (≈ 4.48 µM) | – | –
3 | 4-[{2-(7-Coumarinyloxy)ethoxy}phenyl)-3,5-dimethoxycarbonyl-2,6-dimethyl-1,4-dihydropyridine.ethylacetate [Example 30] | – | – | – | – | – | – | – | – | 100 mg/mL | –
4 | CCOC(=O)C1=C(C)NC(COc2cc(=O)oc3ccccc23)=C(C(=O)OCC)C1c1cccc([N+](=O)[O-])c1 (centres unmarked) [Example 20, 2-(Coumarin-4-yloxymethyl)-3,5-diethoxycarbonyl-6-methyl-4-(3-nitrophenyl)-1,4-dihydropyridine] | – | – | – | – | – | 1.6 µg/mL (≈ 2.99 µM) | 0.05 µg/mL (≈ 0.0935 µM) | 0.07 µg/mL (≈ 0.131 µM) | – | 76 to 79 °C
5 | Nc1nc2c(ncn2COC(CO)CO)c(=O)[nH]1 [DHPG, 9-[(1,3-dihydroxy-2-propoxy)methyl]guanine, reference compound] | – | – | 1.8 µg/mL (≈ 7.05 µM) | > 200 µg/mL | 1.8 µg/mL (≈ 7.05 µM) | – | – | – | – | –
6 | COC(=O)C1=C(C)NC(C)=C(C(=O)OCC(C)(C)COc2cc(=O)oc3ccccc23)C1c1ccccc1 (centres unmarked) [Example 6, 3-[{3-(Coumarin-4-yloxy)-2,2-dimethyl-1-propoxy}carbonyl]-2,6-dimethyl-5-methoxycarbonyl-4-phenyl-1,4-dihydropyridine] | – | – | – | – | – | 8.5 µg/mL (≈ 16.4 µM) | 1 µg/mL (≈ 1.93 µM) | 2 µg/mL (≈ 3.86 µM) | – | –
7 | COC(=O)C1=C(C)NC(C)=C(C(=O)OCCOc2cc(=O)oc3ccccc23)C1c1ccccc1 (centres unmarked) [Example 1, 2,6-Dimethyl-4-phenyl-5-methoxycarbonyl-3-[{2-(coumarin-4-yloxy)ethoxy}carbonyl]-1,4-dihydropyridine] | 2.4 µg/mL (≈ 5.05 µM) | 100 mg/mL | – | – | – | 4.5 µg/mL (≈ 9.46 µM) | 1 µg/mL (≈ 2.1 µM) | 1.5 µg/mL (≈ 3.15 µM) | – | –

Source: patent US6689799B1, “1,4-dihydropyridine-5-carboxylic acid ester derivatives and method for the preparation thereof” (Rephartox, priority 1999, dated 2004)
